Assay results from PubChem BioAssay (NCI).
Several values for one entry are separate records, joined by “and”; a condition that tells them apart may be missing. Equal values may be shown once.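 Tested at 5 concentrations; 48 h exposure; 96-well plates; endpoints linearly interpolated, else capped at highest concentration. GI50 is the concentration that inhibits growth by half. TGI: total growth inhibition.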

What was measured:
Test in all cases: inhibition of tumour cell growth, NCI panel, 48 h
UACC-257 melanoma = system: UACC-257 melanoma
DU-145 prostate = system: DU-145 prostate
SF-295 CNS = system: SF-295 CNS
NCI-H23 lung = system: NCI-H23 lung
U251 CNS = system: U251 CNS
SK-MEL-2 melanoma = system: SK-MEL-2 melanoma
OVCAR-3 ovarian = system: OVCAR-3 ovarian
HOP-92 NSCLC = system: HOP-92 NSCLC

Row | Structure (SMILES) | TGI (UACC-257 melanoma) [µM] | TGI (DU-145 prostate) | TGI (SF-295 CNS) [µM] | TGI (NCI-H23 lung) [µM] | TGI (U251 CNS) [µM] | TGI (SK-MEL-2 melanoma) [µM] | TGI (OVCAR-3 ovarian) | TGI (HOP-92 NSCLC) | GI50 (OVCAR-3 ovarian) [µM] | GI50 (UACC-257 melanoma) | GI50 (DU-145 prostate) | GI50 (SF-295 CNS) | GI50 (NCI-H23 lung) [µM] | GI50 (U251 CNS) [µM] | GI50 (SK-MEL-2 melanoma) [µM] | GI50 (HOP-92 NSCLC) [µM]
1 | COc1cc(C(=O)CBr)c(OC)cc1C | > 100 | > 100 µM | > 100 | > 100 | > 100 | > 100 | – | – | – | – | – | – | – | – | – | –
2 | O=C(CC1(O)C(=O)Nc2c(Cl)ccc(Cl)c21)c1ccc(F)cc1 (stereo unspecified) | > 100 | – | > 100 | 60.6 | > 100 | > 100 | > 100 µM | 82.8 µM | – | – | – | – | – | – | – | –
3 | Cc1ccc(C(=O)NC(C)C)cc1-c1ccc(C(=O)NCC2CC2)cc1 | > 25 | > 25 µM | > 25 | > 25 | > 25 | > 25 | > 25 µM | – | > 25 | > 25 µM | > 25 µM | > 25 µM | > 25 | > 25 | > 25 | –
4 | CCOC(=O)/C(=C\c1ccccc1)C(=O)O | > 100 | – | > 100 | > 100 | > 100 | > 100 | > 100 µM | > 100 µM | – | – | – | – | – | – | – | –
5 | CC(C)(CO)N1CCN(C(=S)Nc2ccccc2)CC1 | > 100 | – | > 100 | > 100 | > 100 | > 100 | > 100 µM | > 100 µM | – | – | – | – | – | – | – | –
6 | O=C(Nc1ccncc1)C(=O)c1cn(S(=O)(=O)c2cccc(F)c2)c2ccccc12 | > 100 | > 100 µM | 27.5 | > 100 | > 100 | > 100 | 12.5 µM | – | 2.65 | 13.5 µM | 6.2 µM | 2.84 µM | 2.43 | 4.38 | 10.3 | –
7 | NC(=O)NS(=O)(=O)c1ccc(N2N=C(C(F)(F)F)CC2c2cc(C(F)(F)F)cc(C(F)(F)F)c2)cc1 (stereo unspecified) | 7.18 | 15.1 µM | – | 19.2 | 15.2 | 9.5 | 4.12 µM | 29.3 µM | 1.83 | 2.58 µM | 3.54 µM | – | 5.32 | 3.94 | 1.2 | 12.9
8 | COc1ccc(-c2nc(-c3nc4ccc(Cl)cc4[nH]3)c3ccccn23)cc1 | 8.5 | 11.1 µM | – | 45.7 | 11.3 | 8.76 | 6.69 µM | 6.09 µM | 2.61 | 2.63 µM | 3.27 µM | – | 7.52 | 3.16 | 2.71 | 2.19
9 | CC/C=C\C[C@H](F)C/C=C1/C(=O)C=C[C@@H]1C/C=C\CCCC(=O)O | 11.4 | 32.4 µM | 17.2 | 20.4 | 8.94 | 16.9 | 22.1 µM | – | 7.96 | 5.23 µM | 8.02 µM | 7.54 µM | 7.36 | 4.01 | 6.7 | –
10 | Cc1c(C(=O)C/C(=N/NC(=O)C[N+](C)(C)C)C(=O)Nc2ccc(Cl)cc2)[n+](=O)c2ccccc2n1O | > 100 | – | > 100 | > 100 | > 100 | > 100 | > 100 µM | > 100 µM | – | – | – | – | – | – | – | –
11 | CC(SC(=S)N1CCOCC1)c1cc2oc(=O)n(C)c2cc1Cl (stereo unspecified) | > 100 | – | > 100 | > 100 | > 100 | > 100 | > 100 µM | > 10 µM | – | – | – | – | – | – | – | –
12 | Cc1cc(N(CCC#N)CCC#N)ccc1/C=C1\N=C(c2cc([N+](=O)[O-])ccc2Cl)N(c2cccc(Cl)c2)C1=O | > 100 | – | > 100 | > 100 | > 100 | > 100 | > 100 µM | > 100 µM | – | – | – | – | – | – | – | –
13 | CC(=O)O[C@H]1C(=O)[C@@]2(C)C(C(OC(=O)c3ccccc3)[C@]3(O)CC(OC(=O)[C@H](OC(=O)CCC(=O)O)C(NC(=O)c4ccccc4)c4ccccc4)C(C)=C1C3(C)C)C1(OC(C)=O)COC1C[C@@H]2O (stereo partly specified) | > 100 | 0.0715 µM and 0.193 µM | 2.27 | > 100 | > 100 | – | 1.76 µM and 0.459 µM | > 78.8 µM and 91.8 µM | – | < 0.01 µM and 0.0295 µM | < 0.01 µM and 0.0319 µM | 0.0471 µM and 0.18 µM | – | – | – | –
14 | O=[N+]([O-])c1ccc(C=NC2CCCCC2)cc1 | > 100 | – | > 100 | > 100 | > 100 | > 100 | > 100 µM | > 100 µM | – | – | – | – | – | – | – | –
15 | O=C(CCN(C(=O)O)S(=O)(=O)c1ccc(NC(=O)c2ccccc2)cc1)NC1CCCCC1 | > 100 | – | > 100 | > 100 | > 100 | > 100 | > 100 µM | > 100 µM | – | – | – | – | – | – | – | –
16 | CC1(C)OC2=C(CC1Br)C(=O)C(=O)c1ccccc12 (stereo unspecified) | 3.27 | 3.05 µM | – | 3.75 | 3.87 | 3.57 | 2.98 µM | 3.97 µM | 1.6 | 1.76 µM | 1.67 µM | – | 1.66 | 1.87 | 1.65 | 2.33
17 | CCCC(=O)OCC1OC(n2cnc3c(=S)nc[nH]c32)C(OC(=O)CCC)C1OC(=O)CCC (stereo unspecified) | > 100 | > 100 µM | > 100 | > 100 | > 100 | > 100 | > 100 µM | – | 0.92 | 10.7 µM | 3.06 µM | 3.53 µM | 5.09 | 62 | 28.1 | –
18 | O/N=C/c1ncccc1C1OCCO1 | > 100 | – | > 100 | > 100 | > 100 | > 100 | > 100 µM | > 100 µM | – | – | – | – | – | – | – | –
19 | CC1OC(OC2C(OC(=O)[C@]34CCC(C)(C)CC3C3=CCC5[C@@]6(C)C[C@H](O)[C@H](OC7OC(CO)C(O)C(O)C7N)[C@@](C)(C(=O)O)C6CC[C@@]5(C)C3(C)CC4)OCC(O)C2O)C(O)C(O)C1OC1OCC(O)C(O)C1O (stereo partly specified) | > 100 | – | > 100 | > 100 | > 100 | > 100 | > 100 µM | > 100 µM | – | – | – | – | – | – | – | –
20 | O=C(O)CCSC(=O)Nc1ccc([N+](=O)[O-])cc1 | > 100 | – | > 100 | > 100 | > 100 | > 100 | > 100 µM | – | – | – | – | – | – | – | – | –
21 | COc1ccc2c(c1)[n+](=O)c(C(=O)C/C(=N/OCCCc1ccccc1)C(=O)NC13CC4CC(CC(C4)C1)C3)c(C)n2[O-] | > 100 | – | > 100 | > 100 | > 100 | > 100 | > 100 µM | – | – | – | – | – | – | – | – | –
